Test results from PMC10313052, “Filarial DAF-12 sense the host serum to resume iL3 development during infection” (PLOS Pathogens, 2023).
pEC50: −log10 of the molar value. “Also recorded” adds a separate entry of the source.

How the values were obtained:
HcoDAF-12 = molecular target: T1, HcoDAF-12 (Haemonchus contortus, UniProt A0A7I4Z123); assay: Cell-based transactivation assay, Gal4-HcoDAF-12_LBD luciferase reporter in NIH3T3 cells
T1 sequence (A0A7I4Z123 444-684): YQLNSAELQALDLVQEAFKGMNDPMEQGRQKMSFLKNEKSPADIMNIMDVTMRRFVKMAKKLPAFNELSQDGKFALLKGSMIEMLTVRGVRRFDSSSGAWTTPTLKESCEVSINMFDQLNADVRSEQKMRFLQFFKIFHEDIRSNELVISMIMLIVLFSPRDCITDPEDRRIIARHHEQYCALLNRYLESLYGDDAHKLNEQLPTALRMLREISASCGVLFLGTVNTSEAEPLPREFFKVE

CelDAF-12 = molecular target: T2, CelDAF-12 (Caenorhabditis elegans, UniProt G5EFF5); assay: cell-based; type: cell-based
T2 construct: fusing the LBD of the receptor of interest (Hco, Cel, Dim or BmaDAF12) and the DBD of GAL4; expressed in transfected cells; host or cells: NIH3T3
T2 sequence (G5EFF5 516-753 limits assumed): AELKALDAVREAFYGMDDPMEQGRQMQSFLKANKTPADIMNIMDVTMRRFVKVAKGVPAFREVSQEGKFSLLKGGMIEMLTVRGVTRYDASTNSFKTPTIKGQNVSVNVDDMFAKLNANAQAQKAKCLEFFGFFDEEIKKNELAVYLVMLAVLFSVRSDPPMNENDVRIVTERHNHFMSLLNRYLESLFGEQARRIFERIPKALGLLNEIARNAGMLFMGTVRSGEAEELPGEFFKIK

DimDAF-12 = DimDAF-12 (Dirofilaria immitis, UniProt A0A7D0JJL8); assay: cell-based; type: cell-based
DimDAF-12, sequence (A0A7D0JJL8 587-828 limits assumed): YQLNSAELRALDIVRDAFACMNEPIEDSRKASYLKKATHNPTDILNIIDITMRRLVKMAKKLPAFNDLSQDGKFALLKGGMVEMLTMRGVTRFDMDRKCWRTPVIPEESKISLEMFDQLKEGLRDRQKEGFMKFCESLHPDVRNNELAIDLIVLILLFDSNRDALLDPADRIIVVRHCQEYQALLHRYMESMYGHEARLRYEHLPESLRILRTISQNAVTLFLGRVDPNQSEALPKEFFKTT

FXR = details: 10μM, 24 hours
D. immitis iL3 = details: 50 µM
[1] = concentrations well above the relevant physiological values
[2] = NIH3T3, 24 h, technical triplicates, Fig 2, read-out: EC50 (logEC50 SE) (converted)

Molecule: 3β-hydroxy-5-cholestenoic acid
- Activation of HcoDAF-12 in dose-response (HcoDAF-12; [1]): failed to activate
- Activation of CelDAF-12 in dose-response (CelDAF-12; [1]): failed to activate
- Activation of DimDAF-12 by spiked charcoal-stripped mouse serum (DimDAF-12): failed to activate; also recorded: did not activate
- Activation of FXR (FXR): do not activate

Molecule: C[C@H](CCC[C@@H](C)[C@H]1CC[C@H]2[C@@H]3CCC4=CC(=O)CC[C@]4(C)[C@H]3CC[C@]12C)C(=O)O [(25R)-Δ4-DA]
- Activation of DimDAF-12 by spiked charcoal-stripped mouse serum (DimDAF-12): partially complement; also recorded: partially restores; also recorded: partial restoration

Molecule: CC(=O)N1CCN(c2ccc(OCC3COC(Cn4ccnc4)(c4ccc(Cl)cc4Cl)O3)cc2)CC1 (stereo not drawn) [ketoconazole]
- Survival of iL3 (D. immitis iL3): all iL3 died

Molecule: CC(CCCC(C)C1CCC2C3=CCC4CC(=O)CCC4(C)C3CCC21C)C(=O)O [Δ7-dafachronic acid, (25S)-Δ7-dafachronic acid]
- EC50 (HcoDAF-12; [2]): 0.012 µM
- EC50 (CelDAF-12; [2]): 0.011 µM
- pEC50 (DimDAF-12): 9.00
